Measured values reported in publication PMC6701825, “Antiproliferative and Antimigratory Effects of a Novel YAP–TEAD Interaction Inhibitor Identified Using in Silico Molecular Docking” (Journal of Medicinal Chemistry, 2019).

Assays:
HeLa cells = assay: Live/dead cell viability assay (ethidium homodimer-1) in HeLa cells; type: cell-based; details: 6 hours
Method: Cell viability was quantified using the live/dead viability/cytotoxicity assay standard protocol (Invitrogen). Maximum cell death was quantified by incubating cells for 10 min with 0.1% Triton-X, followed by incubation with 0.4 μM ethidium homodimer-1 for an additional 10 min. Fluorescence was measured using a GloMax Discover multiplate reader (Promega).
Supplement Figure 3: Effect of shortlisted compounds on cell viability
(§1) HeLa cells transduced with TEAD-NLUC reporter were treated with indicated compounds at 100 µM for 6 hours (n=3). Cell viability was quantified by staining with 0.4 µM ethidium homodimer-1 and ethidium homodimer-1 uptake quantified by measuring fluorescence at 645 nm using a Glomax Discover plate reader.
(1 picture or pasted object on this page, not shown here)
as §1, with “Supplement Figure 6: Effect of CPD3, CPD3.1, CPD3.2 and CPD 3.3 on cell viability HeLa” for “HeLa”, “concentrations of CPD3, CPD3.1, CPD3.2 and CPD 3.3” for “compounds at 100 µM”, “plate” for “plate reader.”

[1] = system: TEAD-dependent transcriptional activity; assay: 8xTEAD secreted nanoluciferase (TEAD-NLUC) reporter assay in HeLa cells; type: cell-based, human; details: HeLa, indicated concentrations, 6 h
From the text: The shortlisted sets of 16 compounds were first assayed for their ability to inhibit TEAD-dependent transcriptional activity in HeLa cells that had been transduced with a recombinant lentiviral vector expressing secreted bioluminescent nanoluciferase (NLUC) reporter gene enzyme, which is expressed under the control of a promoter region containing eight TEAD DNA-binding elements (TEAD-NLUC).
Compounds were initially screened for ability to inhibit TEAD-dependent transcriptional activity in HeLa cells transduced with a lentiviral vector expressing secreted nanoluciferase under the control of multimerized TEAD consensus elements (5′-[…]-3′). 8xTEAD NanoLuc was generated by cloning the 8xTEAD promoter from the 8xTEAD-Luc plasmid (Addgene #34615) into the pENTR gateway entry vector (Promega). This was then recombined into pLNT-sec-Nluc-2A-eGFP destination vector (supplied by Tristan McKay; University of Manchester). Lentiviruses were generated by Viafect-mediated co-transfection of pLNT8x-TEAD-sec-Nluc-2A-eGFP, Δ8.9, and VSV-G vectors into HEK293T cells (ATCC), and lentiviral-containing culture supernatants were used to infect HeLa cells in the presence of 6 μg/mL polybrene. For compound screening, 8xTEAD NanoLuc-transduced HeLa cells were seeded at 2 × 10^4 cells/well in 96-well plates. After 48 h, the cells were washed in PBS and incubated with test compounds at the indicated concentrations for 2 h. The cells were washed again in PBS and incubated with the compound for a further 4 h. Conditioned culture medium (50 μL) was assayed for secreted nanoluciferase activity using NanoGlo activity assays kit (Promega) and a Glomax Discover luminometer.

[2] = indicated concentrations, HeLa (Supplement Figure 6)

SMILES	effect on cell viability (HeLa cells; [2])	effect on TEAD-NLUC activity [1]	effect on cell viability (HeLa cells; 100 µM, HeLa TEAD-NLUC cells)
OCC(O)CN1CCNCC1 (centres unmarked) [CPD3.2]	Neither CPD3.2 nor CPD3.3 had any effect	Neither CPD3.2 nor CPD3.3 had any effect	–
O=C(O)c1ccco1 [CPD3.3]	Neither CPD3.2 nor CPD3.3 had any effect	Neither CPD3.2 nor CPD3.3 had any effect	–
O=C(NCCn1ncc2c(N3CCN(c4ncccn4)CC3)ncnc21)C12CC3CC(CC(C3)C1)C2 [CPD8]	–	–	without significantly affecting cell viability
